Reference: paper PMC9527238, “Glutamate and GABAA receptor crosstalk mediates homeostatic regulation of neuronal excitation in the mammalian brain” (Signal Transduction and Targeted Therapy, 2022)

Experiments:
rat α1β2γ2 GABAARs = target: T1, rat α1β2γ2 GABAARs (Rattus norvegicus, UniProt P62813+P63138); experiment: Whole-cell patch clamp of GABA-evoked currents, HEK293 cells expressing wild-type α1β2γ2; assay type: cell-based
T1 construct: expressed in transfected cells; host or cells: HEK293
Description: Co-expression of the α and β subunits is the minimum requirement for a functional recombinant GABAAR expressed in a heterologous cell line such as HEK293, while co-expression of the α, β and γ subunits is required for the recombinant receptor with a full pharmacological profile.[2] We therefore transiently expressed either rat α1β2 or α1β2γ2 subunits in HEK293 cells.
(§1) HEK293 cells were cultured in DMEM (Invitrogen) supplemented with 10% fetal bovine serum. Cells were grown to 40–60% confluence and transiently transfected using Lipofectamine 2000 (Invitrogen) with 1:0.5–1 plasmid/lipid ratio. Cells were transfected with a pBK-CMV expression vector containing a rat recombinant GABAAR α, β or γ subunits. Co-transections were done with a plasmid ratio of 1:1 αβ and 2:2:1 for αβγ subunit combinations, respectively. pcDNA3.1-GFP was also co-transfected along with GABAAR subunits as a transfected marker in order to facilitate the visualization of the transfected cells during electrophysiological experiments. Cells were re-plated on glass coverslips after 15–20 h transfection and were cultured for an additional 15–24 h before whole-cell patch-clamp recordings.
(§2) Whole-cell patch-clamp recordings were performed under voltage-clamp mode using an Axopatch 200B or 1D patch-clamp amplifier (Molecular Devices) on HEK293 cells and cultured neurons. Whole-cell currents were recorded at a holding potential of −60 mV, and signals were filtered at 2 kHz, digitized at 10 kHz (Digidata 1322 A). Recording pipettes (3–5 MΩ) were filled with the intracellular solution that contained (mM): CsCl 140, HEPES 10, Mg-ATP 4, QX-314 5, pH 7.20; osmolarity, 290–295 mOsm. BAPTA (10 mM) was added in the intracellular solution. The coverslips were continuously superfused with the extracellular solution containing (mM): NaCl 140, KCl 5.4, HEPES 10, MgCl2 1.0, CaCl2 1.3, glucose 20, pH 7.4; osmolarity, 305–315 mOsm. […] Dose–response curves were created by fitting data to Hill equation: I = Imax/[1 + (EC50/[A])^n], where I is the current, Imax is the maximum current, [A] is a given concentration of agonist, n is the Hill coefficient. […] All experiments were performed at room temperature.

α1/β3/γ2 GABAAR = target: T2, α1/β3/γ2 GABAAR (Rattus norvegicus, UniProt P62813+P63079); experiment: Patch clamp, HEK293, β3-containing GABAAR; assay type: cell-based; conditions: wild-type α1/β3/γ2
T2 construct: expressed in transfected cells; host or cells: HEK293

α2/β2/γ2 GABAARs = target: T3, α2/β2/γ2 GABAARs (Rattus norvegicus, UniProt P23576+P63138); experiment: Patch clamp, HEK293, α2-containing GABAAR; assay type: cell-based; conditions: wild-type α2/β2/γ2
T3 construct: expressed in transfected cells; host or cells: HEK293

[1] = tested on: GABAAR-mediated currents, WT mice; experiment: Whole-cell recording of CA1 neurons, hippocampal slices of WT mice; assay type: cell-based, mouse; conditions: L-Glu 50 µM
Description: We next determined if glutamate-mediated allosteric potentiation of GABAAR function was impaired in hippocampal slices acutely prepared from postnatal 90-day-old KI mice. Whole-cell recordings of CA1 neurons were performed under voltage clamp configuration at a holding potential of −60 mV.
Mice were deeply anesthetized with urethane (1.5 g/kg, i.p.) and transcardially perfused with ice cold sucrose hypertonic cutting solution (in mM: KCl 3.0, NaH2PO4.H2O 1.25, NaHCO3 26, Na-vitamin C 0.4, Na-lactate 2.0, Na-pyruvate 2.0, D-glucose 10.0, Sucrose 220, CaCl2 0.1, MgCl2 2, MgSO4 4.0, pH 7.4, 290–300 mOsm/l) prior to decapitation as described previously.[47] After decapitation, the brain was rapidly removed and transferred to the ice cold cutting solution bubbled with 95% O2 and 5% CO2, and acute coronal brain slices (400 μm) were prepared on a Leica vibratome (VT1200S, Germany). All brain slices were placed into a standard artificial cerebral spinal fluid (ACSF) (in mM: NaCl 124, KCl 2.8, NaH2PO4.H2O 1.25, NaHCO3 26, Na-vitamin C 0.4, Na-lactate 2.0, Na-pyruvate 2.0, D-glucose 10.0, CaCl2 2, MgSO4 1.2, pH 7.4, 290–300 mOsm/l) incubated at 35 °C for 2 h prior to recording. Field excitatory postsynaptic potential (fEPSP) recordings were performed under current-clamp mode using HEKA EPC10 patch-clamp amplifier (HEKA Electronic, Lambrecht/Pfalz, Germany). […]

α1β2 GABAARs = target: T4, α1β2 GABAARs (Rattus norvegicus, UniProt P62813+P63138); experiment: [3H]glutamate binding assay, plasma membranes of HEK293 cells overexpressing α1 and β2; conditions: 40 nM [3H]glutamate + 0.4 mM non-radiolabeled competitor
T4 construct: expressed in transfected cells; host or cells: HEK293
Description: For membrane preparation, transfected or non-transfected HEK293 cells were washed twice with cold PBS and harvested by scraping into 5 ml cold PBS. Cells were then centrifuged at 1200 × g for 12 min at 4 °C and medium was removed. The washing procedure was repeated twice. Then the cell pellet was re-suspended into 1 ml of 50 mM Tris-HCl buffer (pH 7.4, with protease inhibitor) and homogenized using syringes with 18-G, 21-G and 23-G needles.
To separate the membrane, the homogenate were centrifuged for 20 min at 20,000 × g at 4 °C. Then the pellet was re-suspended into 1 ml of 50 mM Tris-HCl buffer, pH 7.4 and centrifuged again. After repeating this procedure for one more time, the pellet was re-suspended into 1 ml of 50 mM Tris-HCl buffer, pH 7.4 and the protein concentration was measured.
To conduct the binding assay, 100 µg membrane enriched preparation was incubated with 40 nM [3H]-Glutamate in a total volume of 0.5 ml in 50 mM Tris-HCl buffer, pH 7.4 for 1 h on ice. […] Then the reaction was terminated by quickly filtering the solution on Whatman filter paper and washing by 3.5 ml Tris-HCl buffer. Radioactivity was measured in a Beckman liquid scintillation counter.

α1β2γ2E168K GABAAR = target: T5, α1β2γ2E168K GABAAR (Rattus norvegicus, UniProt P18508+P62813+P63138, E206K); experiment: Patch clamp, HEK293, mutant GABAAR; assay type: cell-based
T5 construct: expressed in transfected cells; host or cells: HEK293
Description: (§3) However, for the GABAAR containing only α and β subunits, there are two α^+/β^− interfaces, with potentially two glutamate-binding pockets (Fig. 5a; Right).
as §1
(§4) The site-directed mutagenesis of α, β or γ subunits were performed by using the QuikChange method (Stratagene). […] Wild-type or mutant subunits were transfected in HEK293 cells and subjected to electrophysiology examinations.
as §2

α1β2γ2R197E GABAAR = target: T6, α1β2γ2R197E GABAAR (Rattus norvegicus, UniProt P18508+P62813+P63138, R235E); experiment: Patch clamp, HEK293, mutant GABAAR; assay type: cell-based
T6 construct: expressed in transfected cells; host or cells: HEK293
Description: as §3, §1, §4, §2

N[C@@H](CCC(=O)O)C(=O)O [glutamate, Glutamate]
GABA currents in presence of ligand, compared with GABA alone (rat α1β2γ2 GABAARs): 169.3 ± 6.9%
Relative potentiation (rat α1β2γ2 GABAARs): 100.0%
potentiation of GABA-induced currents by glutamate (α1/β3/γ2 GABAAR): could also potentiate GABA-induced currents
potentiation of GABA currents by glutamate (α2/β2/γ2 GABAARs): capable of potentiating GABA currents
GABAAR-mediated IPSC currents relative to baseline [1]: 153.0 ± 9.5%
[3H]glutamate binding activity in presence of competitor (α1β2 GABAARs): 262.2 ± 47.8 CPM
Glu-induced potentiation, % of wild-type α1β2γ2 (α1β2γ2E168K GABAAR; Glu 100 μM): 169.4 ± 32.5%
Glu-induced potentiation, % of wild-type α1β2γ2 (α1β2γ2E168K GABAAR; Glu 1 mM): 225.7 ± 51.9%
Glu-induced potentiation, % of wild-type α1β2 (α1β2γ2R197E GABAAR; Glu 100 μM): 92.7 ± 22.0%
Glu-induced potentiation, % of wild-type α1β2γ2 (α1β2γ2R197E GABAAR; Glu 100 μM): 204.9 ± 48.7%
Glu-induced potentiation, % of wild-type α1β2 (α1β2γ2R197E GABAAR; Glu 1 mM): 82.4 ± 16.9%
Glu-induced potentiation, % of wild-type α1β2γ2 (α1β2γ2R197E GABAAR; Glu 1 mM): 190.9 ± 39.2%
